Data published in patent publication US12662491B2 (Redona Therapeutics, Inc., priority 2020, dated 2026).
Like-named read-outs stand apart in the source and are kept apart here.

Target: T1, Zcchc11 enzyme (Homo sapiens, UniProt Q5TAX3)
T1 construct: made in house; host or cells: HEK293 cells (Zcchc11); E. coli Rosetta II (LIN28A)
T1 sequence (Q5TAX3 212-1420): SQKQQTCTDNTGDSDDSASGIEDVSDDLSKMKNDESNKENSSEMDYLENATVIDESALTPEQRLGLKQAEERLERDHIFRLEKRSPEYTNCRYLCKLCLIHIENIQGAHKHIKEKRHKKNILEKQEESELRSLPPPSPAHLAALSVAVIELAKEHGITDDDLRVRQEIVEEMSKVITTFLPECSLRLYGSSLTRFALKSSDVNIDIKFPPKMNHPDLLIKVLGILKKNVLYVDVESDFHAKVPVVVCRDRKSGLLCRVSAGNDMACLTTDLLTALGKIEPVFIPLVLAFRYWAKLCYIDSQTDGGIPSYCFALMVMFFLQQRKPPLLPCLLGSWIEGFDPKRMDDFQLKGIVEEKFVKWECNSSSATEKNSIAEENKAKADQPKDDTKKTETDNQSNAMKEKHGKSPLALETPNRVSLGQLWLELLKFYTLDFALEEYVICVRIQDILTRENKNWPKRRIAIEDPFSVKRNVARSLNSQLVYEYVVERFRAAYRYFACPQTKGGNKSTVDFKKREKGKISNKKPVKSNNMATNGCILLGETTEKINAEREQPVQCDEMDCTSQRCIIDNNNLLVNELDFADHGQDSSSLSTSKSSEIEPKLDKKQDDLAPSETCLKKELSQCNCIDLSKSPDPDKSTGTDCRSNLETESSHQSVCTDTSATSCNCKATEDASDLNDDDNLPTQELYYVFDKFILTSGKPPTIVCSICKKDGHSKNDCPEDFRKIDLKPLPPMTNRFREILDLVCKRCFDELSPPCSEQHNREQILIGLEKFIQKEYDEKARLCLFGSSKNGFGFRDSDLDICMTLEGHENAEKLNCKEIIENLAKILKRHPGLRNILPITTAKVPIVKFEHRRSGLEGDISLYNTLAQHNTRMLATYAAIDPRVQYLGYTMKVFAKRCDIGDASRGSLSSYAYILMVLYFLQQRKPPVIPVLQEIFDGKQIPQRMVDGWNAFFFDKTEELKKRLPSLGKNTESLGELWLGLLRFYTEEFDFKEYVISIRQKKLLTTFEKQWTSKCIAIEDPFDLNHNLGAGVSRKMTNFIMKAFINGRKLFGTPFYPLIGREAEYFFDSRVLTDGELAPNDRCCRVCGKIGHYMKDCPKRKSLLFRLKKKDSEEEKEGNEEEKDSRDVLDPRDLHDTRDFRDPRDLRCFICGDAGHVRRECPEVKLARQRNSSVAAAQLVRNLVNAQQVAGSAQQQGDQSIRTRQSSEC
Experiment: TUTase assay (Zcchc11 assay, Lin28a-dependent polyuridylation of pre-let-7)
Type: biochemical
Settings: read-out: Potency Lin28a-dep Z11 IC50
Procedure, shortened: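 LIN28A (10 nM) in pH 7.3 HEPES/KCl/MgCl2/DTT buffer was mixed with serially diluted compound, then 0.2 nM truncated human Zcchc11 and 2 nM labeled pre-let-7 were added for 30 min at room temperature. UTP (5 uM) and quench probe (4 nM) then started the reaction. Linear early rates gave IC50 values.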

[1] = Lin28a-dependent Zcchc11 (Z11) TUTase assay
[2] = Lin28a-dependent Zcchc11 (Z11) TUTase activity
[3] = LIN28A 10 nM, Zcchc11 0.2 nM, 5′-fluorescein pre-let-7 miRNA 2 nM, UTP 5 uM, room temperature, 30 minutes pre-incubation

Row | Compound | IC50 [1] [nM] | IC50 [2] [nM] | also measured
1 | Cc1cccc(-n2cc(C(=O)O)c(=O)c3cc(F)c(N4CCC[C@@H]4COc4ccccn4)cc32)c1C [Example 392, (R)-1-(2,3-dimethylphenyl)-6-fluoro-4-oxo-7-(2-((pyridin-2-yloxy)methyl)pyrrolidin-1-yl)-1,4-dihydroquinoline-3-carboxylic acid] | ≤ 1000 |  | 
2 | Nc1cc(Cn2cc(C(=O)O)c(=O)c3cc(Cl)c(N4CCC[C@@H]4COc4ncccc4Cl)cc32)ccn1 [Example 589, (R)-1-((2-aminopyridin-4-yl)methyl)-6-chloro-7-(2-(((3-chloropyridin-2-yl)oxy)methyl)pyrrolidin-1-yl)-4-oxo-1,4-dihydroquinoline-3-carboxylic acid] | 1000 to 10000 |  | 
3 | COc1ccc(COc2ccc(-n3cc(C(=O)O)c(=O)c4cc(F)c(N5CCC[C@@H]5COc5cccnn5)cc43)c(F)c2)cc1 [Compound 138, (R)-6-fluoro-1-(2-fluoro-4-((4-methoxy-benzyl)oxy)phenyl)-4-oxo-7-(2-((pyridazin-3-yloxy)methyl)pyrrolidin-1-yl)-1,4-dihydro-quinoline-3-carboxylic acid] |  | ≤ 1000 | 
4 | Cc1cccc(C)c1OC[C@H]1CCCN1c1cc2c(cc1F)c(=O)c(C(=O)O)cn2-c1ccc(O)cc1 [Compound 106, (R)-7-(2-((2,6-dimethyl-phenoxy)methyl)pyrrolidin-1-yl)-6-fluoro-1-(4-hydroxy-phenyl)-4-oxo-1,4-dihydro-quinoline-3-carboxylic acid] |  | > 50000 | 
5 | O=C(O)c1cn(-c2ccc3c(c2)COC3)c2cc(N3CCC[C@@H]3COc3ncccc3Cl)c(Cl)cc2c1=O [Example 18, (R)-6-chloro-7-(2-(((3-chloropyridin-2-yl)oxy)methyl)pyrrolidin-1-yl)-1-(1,3-dihydroisobenzofuran-5-yl)-4-oxo-1,4-dihydroquinoline-3-carboxylic acid] |  |  | IC50 [3]: ≤ 1000 nM
6 | CN(C)C1CN(c2ccc(-n3cc(C(=O)O)c(=O)c4cc(Cl)c(N5CC[C@H](O)[C@@H]5COc5ncccc5Cl)cc43)cn2)C1 [Example 667, 6-chloro-7-((2S,3S)-2-(((3-chloropyridin-2-yl)oxy)methyl)-3-hydroxypyrrolidin-1-yl)-1-(6-(3-(dimethylamino)azetidin-1-yl)pyridin-3-yl)-4-oxo-1,4-dihydroquinoline-3-carboxylic acid] | ≤ 1000 |  | 
7 | O=C(O)c1cn(-c2cnccn2)c2cc(N3CCC[C@@H]3COc3ncccc3Cl)c(Cl)cc2c1=O [Example 425, (R)-6-chloro-7-(2-(((3-chloropyridin-2-yl)oxy)methyl)pyrrolidin-1-yl)-4-oxo-1-(pyrazin-2-yl)-1,4-dihydroquinoline-3-carboxylic acid] | ≤ 1000 |  | 
8 | CN(C)C1CN(c2ccc(-n3cc(C(=O)O)c(=O)c4cc(Cl)c(N5CCC[C@@H]5COc5nc6nc[nH]c6cc5Cl)cc43)cn2)C1 [Example 652, (R)-6-chloro-7-(2-(((6-chloro-3H-imidazo[4,5-b]pyridin-5-yl)oxy)methyl)pyrrolidin-1-yl)-1-(6-(3-(dimethylamino)azetidin-1-yl)pyridin-3-yl)-4-oxo-1,4-dihydroquinoline-3-carboxylic acid] | ≤ 1000 |  | 
9 | CN(C)C1CN(c2ccc(-n3cc(C(=O)O)c(=O)c4cc(Cl)c(N5CCC[C@@H]5COc5ncccc5Cl)nc43)cn2)C1 [Example 532, (R)-6-chloro-7-(2-(((3-chloropyridin-2-yl)oxy)methyl)pyrrolidin-1-yl)-1-(6-(3-(dimethylamino)azetidin-1-yl)pyridin-3-yl)-4-oxo-1,4-dihydro-1,8-naphthyridine-3-carboxylic acid] | ≤ 1000 |  | 
10 | CC(C)C1C[C@H](COc2ncccc2Cl)N(c2cc3c(cc2Cl)c(=O)c(C(=O)O)cn3-c2ccc(N3CC(N(C)C)C3)nc2)C1 (mixture of isomers) [Compound 223, Rac-6-chloro-7-((2R)-2-(((3-chloropyridin-2-yl)oxy)methyl)-4-isopropyl-pyrrolidin-1-yl)-1-(6-(3-(dimethyl-amino)azetidin-1-yl)pyridin-3-yl)-4-oxo-1,4-dihydro-quinoline-3-carboxylic acid] |  | ≤ 1000 | 
11 | O=C(O)c1cn(-c2cnc(OCc3ccccc3)cn2)c2cc(N3CCC[C@@H]3COc3ncccc3Cl)c(Cl)cc2c1=O (racemic) [Compound 263, rac-(R)-1-(5-(benzyloxy)pyrazin-2-yl)-6-chloro-7-(2-(((3-chloropyridin-2-yl)oxy)methyl)pyrrolidin-1-yl)-4-oxo-1,4-dihydro-quinoline-3-carboxylic acid] |  | ≤ 1000 | 
12 | O=C(O)c1cn(-c2cnc(OCCO)cn2)c2cc(N3CCC[C@@H]3COc3ncccc3Cl)c(Cl)cc2c1=O [Example 45, 6-chloro-7-[(2R)-2-[[(3-chloropyridin-2-yl)oxy]methyl]pyrrolidin-1-yl]-1-[5-(2-hydroxyethoxy)pyrazin-2-yl]-4-oxoquinoline-3-carboxylic acid] |  |  | IC50 [3]: ≤ 1000 nM
13 | COc1cc2c(=O)c(C(=O)O)cn(-c3ccc(N4CC(N(C)C)C4)nc3)c2cc1N1CCC[C@@H]1COc1ncccc1Cl [Example 524, (R)-7-(2-(((3-chloropyridin-2-yl)oxy)methyl)pyrrolidin-1-yl)-1-(6-(3-(dimethylamino)azetidin-1-yl)pyridin-3-yl)-6-methoxy-4-oxo-1,4-dihydroquinoline-3-carboxylic acid] | 1000 to 10000 |  | 
14 | COc1ccc(Cl)c(OC[C@H]2[C@@H](OC)CCN2c2cc3c(cc2Cl)c(=O)c(C(=O)O)cn3-c2ccc(N3CC(N(C)C)C3)nc2)n1 [Example 684, 6-chloro-7-((2S,3S)-2-(((3-chloro-6-methoxypyridin-2-yl)oxy)methyl)-3-methoxypyrrolidin-1-yl)-1-(6-(3-(dimethylamino)azetidin-1-yl)pyridin-3-yl)-4-oxo-1,4-dihydroquinoline-3-carboxylic acid] | ≤ 1000 |  | 
15 | CS(=O)(=O)Nc1ccc(-n2cc(C(=O)O)c(=O)c3cc(F)c(N4CCC[C@@H]4COc4ccccn4)cc32)cc1 [Example 371, (R)-6-fluoro-1-(4-(methyl-sulfonamido)phenyl)-4-oxo-7-(2-((pyridin-2-yloxy)methyl)pyrrolidin-1-yl)-1,4-dihydro-quinoline-3-carboxylic acid] | ≤ 1000 |  | 
16 | Cn1cncc1-n1cc(C(=O)O)c(=O)c2cc(Cl)c(N3CCC[C@@H]3COc3ncccc3Cl)cc21 [Example 567, (R)-6-chloro-7-(2-(((3-chloropyridin-2-yl)oxy)methyl)pyrrolidin-1-yl)-1-(1-methyl-1H-imidazol-5-yl)-4-oxo-1,4-dihydroquinoline-3-carboxylic acid] | ≤ 1000 |  | 
17 | CN(C)C1CN(c2ccc(-n3cc(C(=O)O)c(=O)c4cc(Cl)c(N5CCC[C@@H]5COc5ncccc5Cl)cc43)cn2)C1 [Compound 318, 6-Chloro-7-[(2R)-2-[[(3-chloropyridin-2-yl)oxy]methyl]pyrrolidin-1-yl]-1-[6-[3-(dimethyl-amino)azetidin-1-yl]pyridin-3-yl]-4-oxoquinoline-3-carboxylic acid] |  | ≤ 1000 | 
18 | O=C(O)c1cn(-c2cnn(C3CN(CC(F)(F)F)C3)c2)c2cc(N3CCC[C@@H]3COc3ncccc3Cl)c(Cl)cc2c1=O [Compound 239, 6-chloro-7-[(2R)-2-[[(3-chloropyridin-2-yl)oxy]methyl]pyrrolidin-1-yl]-4-oxo-1-[1-[1-(2,2,2-trifluoro-ethyl)azetidin-3-yl]pyrazol-4-yl]quinoline-3-carboxylic acid] |  | ≤ 1000 | 
19 | O=C(O)c1cn(-c2ccnc(N3CCC3)c2)c2cc(N3CCC[C@@H]3COc3ncccc3Cl)c(Cl)cc2c1=O [Example 554, (R)-1-(2-(azetidin-1-yl)pyridin-4-yl)-6-chloro-7-(2-(((3-chloropyridin-2-yl)oxy)methyl)pyrrolidin-1-yl)-4-oxo-1,4-dihydroquinoline-3-carboxylic acid] | ≤ 1000 |  | 
